Columns and labels:
[1] = Structure and binding energy analysis of metal lactate salts; assay type: physicochemical; settings: as compared to sodium lactate and potassium lactate (FIG. 1)
Text: Calcium carbonate, sodium carbonate, or potassium carbonate was reacted with lactate so as to obtain metal lactate salt (calcium lactate, sodium lactate, or potassium lactate) solutions, respectively. Each of them was filtered, dried, and pulverized so as to obtain metal lactate salt (calcium lactate, sodium lactate, or potassium lactate) in the form of powder. Then, the structure and binding energy of the obtained metal lactate salts (calcium lactate, sodium lactate, or potassium lactate) were analyzed (FIG. 1).

[2] = system: LDH-B (lactate dehydrogenase B); assay: LDH-B protein expression (immunofluorescence); assay type: cell-based, human; settings: HCT-116 and HT-29; 2.5 mM, 24 hours
Description: Human colorectal cancer cell lines (HCT-116 and HT-29) were treated with 2.5 mM calcium lactate and cultured for 24 hours. The cultured cancer cell lines were immobilized with 4% paraformaldehyde and treated with an anti-rabbit LDHB antibody for 15 hours. Then, the cancer cell lines were washed with PBS and treated with a secondary antibody conjugated with biotin and then reacted at room temperature for 2 hours. Then, the cancer cell lines were treated with streptavidine conjugated with FITC to perform fluorescence staining and then photographed with a fluorescence microscope (FIG. 11a-11c). In this case, cancer cell lines cultured under normoxia condition (N-control) or hypoxia condition (H-control) were used as control groups, and a nucleus of each cell was stained using DAPI. Further, the photos were analyzed using the Xenogen In Vivo Imaging System 100 series and Living imaging software (Xenogen).

[3] = system: melanoma cell lines (SKMEL-02 and SKMEL-28); assay: Cell migration of melanoma cell lines; assay type: cell-based; settings: 2.5 mM, 24 hours after insert removal, vs untreated
Description: A colorectal cancer cell line HCT-116 with the cell number of 4×10^5 cells was inoculated into a culture container at the center of which an ibidi culture insert having a thickness of 500 μm was placed, and treated with 2.5 mM calcium lactate and then cultured for 24 hours. Then, the insert was removed and further cultured for 12 hours to analyze migration of the cancer cells to a site where the insert was removed using a JuLi Br, Live cell analyzer (NanoEnTek Inc., South Korea) (FIG. 18). In this case, a colorectal cancer cell line cultured without treating with calcium lactate was used as a control group.
Using the same method as Example 8-1, with melanoma cell lines (SKMEL-02 and SKMEL-28) instead of the colorectal cancer cell line and further cultured for 24 hours after removal of the insert was performed, the effect of calcium lactate on migration of the melanoma cell lines was examined (FIG. 20).

[4] = system: human colorectal cancer stem cell line; assay: Conformational change of sphere of colorectal cancer stem cell line; assay type: cell-based; settings: vs DMSO control
Description: A human colorectal cancer stem cell line was inoculated into a stem cell culture medium (medium including 1% penicillin/streptomycin and 50 times B27 and including a DMEM medium and an F12 medium mixed at 1:1) and cultured at 37° C. with 5% CO2. The cultured colorectal cancer stem cell line was treated with calcium lactate and then, it was checked whether or not there is the conformational change of a sphere formed by the stem cells (FIG. 22). In this case, a cancer cell treated with DMSO instead of calcium lactate was used as a control group.

[5] = system: colorectal cancer cell (HT-29); assay: Tumor volume and morphology in HT-29 implanted animal model; assay type: in vivo, Balb/c mice
Description: A colorectal cancer cell (HT-29) cultured in an RPMI1640 medium and then diluted with PBS was subcutaneously implanted into the flank of Balb/c mice. The mice were bred until the colorectal cancer cell grew to about 5 mm. Then, four groups were set up; a control group untreated with calcium lactate for 30 days, an experimental group 1 (peroral, P.O.) administered with 2.5 mM calcium lactate by oral administration, an experimental group 2 (intra tumor, I.T) injected with 2.5 mM calcium lactate around tumor, and an experimental group 3 (subcutaneous, S.C) subcutaneously injected with 25 mM calcium lactate (FIG. 27).
The volumes of colorectal cancer tissues extracted from the mice of the control group or the experimental group 1 set up in Example 10-1 were measured over time and compared with each other (FIG. 30).
The volumes of colorectal cancer tissues extracted from the mice of the control group or the experimental group 2 set up in Example 10-1 were measured over time and compared with each other (FIG. 32).
The tumor morphologies of the mice of the control group or the experimental group 2 set up in Example 10-1 were compared with each other (FIG. 33).
The volumes of colorectal cancer tissues extracted from the mice of the control group or the experimental group 3 set up in Example 10-1 were measured over time and compared with each other (FIG. 34).
The tumor morphologies of the mice of the control group or the experimental group 3 set up in Example 10-1 were compared with each other (FIG. 35).

[6] = system: GLUT 1 and HK2; assay: GLUT 1 and HK2 expression under hypoxia (real-time PCR, Western blot); assay type: cell-based, human; settings: HCT-116 and HT-29; hypoxia condition
Description: Human colorectal cancer cell lines (HCT-116 and HT-29) were cultured under normoxia or hypoxia condition. The cell lines cultured under the hypoxia condition were treated with calcium lactate, and then, expression levels of GLUT 1 and HK2 in each of the cultured cell lines were compared at the mRNA and protein expression levels (FIG. 7).

[7] = system: human liver cancer cell line (Hep3B); assay: Colony-forming ability, anticancer drug in combination with calcium lactate (6-well plates); assay type: cell-based; settings: 2.5 mM calcium lactate alone, vs control
Description: Human liver cancer cell line (Hep3B) with the cell number of 1×10^3 cells were seeded into an RPMI1640 medium in each of 6-well plates. After one day, the medium was replaced with fresh medium and the cells were treated with 2.5 mM calcium lactate or 1 μM, 2.5 μM, and 5 μM Sorafenib alone or treated with various concentrations (1 μM, 2.5 μM, and 5 μM) of Sorafenib in combination with 2.5 mM calcium lactate. Then, the colony-forming abilities of the cells were compared. In this case, a human liver cancer cell line (Hep3B) untreated with any drug was used as a control group (FIGS. 45a and 45b).

[8] = system: human colorectal cancer cell line (HT-29); assay: as above; assay type: cell-based; settings: 2.5 mM calcium lactate alone, vs control
Description: (§1) Human colorectal cancer cell line (HT-29) with the cell number of 1×10^3 cells were seeded into an RPMI1640 medium in each of 6-well plates. […]. Then, the colony-forming abilities of the cells were compared. In this case, a human colorectal cancer cell line (HT-29) untreated with any drug was used as a control group (FIGS. 46a and 46b).
as §1, with “48a” for “46a”, “48b).” for “46b).”
as §1, with “(FIG. 55).” for “(FIGS. 46a and 46b).”

CC(O)C(=O)[O-].CC(O)C(=O)[O-].[Ca+2] (stereo not shown) [calcium lactate]
binding energy [1]: relatively high binding energy
protein expression levels of LDH-B [2]: sharply increased
cell migration (metastatic capacity) [3]: relatively low levels of metastasis
conformation of the sphere [4]: destructed
tumor morphology ([5]; 2.5 mM injected around tumor): decreased in size with decreased angiogenesis
tumor morphology ([5]; 25 mM subcutaneously injected): greatly decreased in size and angiogenesis is also reduced
final tumor volume ([5]; 25 mM subcutaneously injected, 30 days (control about 2300)): about 80 mm^3
expression levels of GLUT 1 and HK2 (activation of glycolysis) [6]: reduced
colony-forming ability [7]: suppressed
colony-forming ability [8]: suppressed
